Broadly, the IC50 is the concentration that gives 50% inhibition.

Structures can show the parent of a compound that is named as a salt.

Experimental findings from patent US20090312364A1, “NOVEL CHROMEN-2-ONE DERIVATIVES AND THEIR USE AS MONOAMINE NEUROT[…]-UPTAKE INHIBITORS” (NeuroSearch A/S, priority 2006, published 2009) are described below.

What all share (assay type): biochemical
For assay [1], the target named is T1, serotonine (5-HT) reuptake in synaptosomes (Rattus norvegicus, UniProt P31652).
T1 construct: in synaptosomes as described in WO 97/16451; from tissue
The assay can be described thus: In vitro inhibition of 5-HT reuptake in synaptosomes. The settings on record: 3H-5-HT, as described in WO 97/16451, read-out: 5-HT-uptake IC50. On the procedure: (§1) A number of compounds were tested for their ability to inhibit the reuptake of the monoamine neurotransmitters dopamine (DA), noradrenaline (NA) and serotonine (5-HT) in synaptosomes as described in WO 97/16451.
(§2) The test values are given as IC50 (the concentration (μM) of the test substance which inhibits the specific binding of ^3H-DA, ^3H-NA, or ^3H-5-HT by 50%).

Assay [2] concerns the target T2, dopamine (DA) reuptake in synaptosomes (Rattus norvegicus, UniProt P23977).
T2 construct: in synaptosomes as described in WO 97/16451; from tissue
As to the kind of experiment: In vitro inhibition of DA reuptake in synaptosomes. The settings on record: 3H-DA, as described in WO 97/16451, read-out: DA-uptake IC50. On the procedure:
as §1, §2

The target in assay [3] is T3, noradrenaline (NA) reuptake in synaptosomes (Rattus norvegicus, UniProt Q9WTR4).
T3 construct: in synaptosomes as described in WO 97/16451; from tissue
As to the kind of experiment: In vitro inhibition of NA reuptake in synaptosomes. The following applies: 3H-NA, as described in WO 97/16451, read-out: NA-uptake IC50. As for the experimental part: as §1, §2

T3 sequence (Q9WTR4 1-597): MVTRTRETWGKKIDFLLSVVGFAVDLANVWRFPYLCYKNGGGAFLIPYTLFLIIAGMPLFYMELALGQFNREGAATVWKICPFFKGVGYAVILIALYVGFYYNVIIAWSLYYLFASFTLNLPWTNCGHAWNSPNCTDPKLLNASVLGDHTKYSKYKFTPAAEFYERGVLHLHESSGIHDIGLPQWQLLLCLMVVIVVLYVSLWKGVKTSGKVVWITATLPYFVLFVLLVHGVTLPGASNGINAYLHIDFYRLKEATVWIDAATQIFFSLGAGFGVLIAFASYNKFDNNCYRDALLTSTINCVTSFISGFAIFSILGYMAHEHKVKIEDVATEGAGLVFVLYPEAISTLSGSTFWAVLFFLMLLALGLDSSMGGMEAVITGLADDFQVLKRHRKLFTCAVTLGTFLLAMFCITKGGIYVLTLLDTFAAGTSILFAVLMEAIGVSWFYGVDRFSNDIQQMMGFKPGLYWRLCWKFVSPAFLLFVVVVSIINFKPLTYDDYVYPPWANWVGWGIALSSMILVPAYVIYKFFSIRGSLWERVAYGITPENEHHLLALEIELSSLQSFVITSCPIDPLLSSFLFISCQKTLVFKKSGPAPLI
T2 sequence (P23977 whole entry): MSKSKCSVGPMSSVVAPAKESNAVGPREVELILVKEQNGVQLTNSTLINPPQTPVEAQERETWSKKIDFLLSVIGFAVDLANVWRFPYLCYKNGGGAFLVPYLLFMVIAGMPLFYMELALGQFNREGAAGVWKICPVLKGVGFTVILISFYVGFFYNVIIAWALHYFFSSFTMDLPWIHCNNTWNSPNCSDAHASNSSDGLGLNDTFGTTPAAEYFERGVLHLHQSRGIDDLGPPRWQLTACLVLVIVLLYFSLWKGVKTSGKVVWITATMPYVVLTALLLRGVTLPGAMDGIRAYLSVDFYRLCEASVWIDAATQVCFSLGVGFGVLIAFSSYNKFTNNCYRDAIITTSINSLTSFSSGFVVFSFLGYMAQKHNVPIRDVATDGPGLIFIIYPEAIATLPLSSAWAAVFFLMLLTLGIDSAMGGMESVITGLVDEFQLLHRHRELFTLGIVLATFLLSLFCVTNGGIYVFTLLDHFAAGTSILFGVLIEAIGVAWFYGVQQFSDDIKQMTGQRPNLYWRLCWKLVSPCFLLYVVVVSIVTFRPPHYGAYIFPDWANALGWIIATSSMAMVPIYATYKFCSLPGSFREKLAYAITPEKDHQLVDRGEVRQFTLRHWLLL
T1 sequence (P31652 whole entry): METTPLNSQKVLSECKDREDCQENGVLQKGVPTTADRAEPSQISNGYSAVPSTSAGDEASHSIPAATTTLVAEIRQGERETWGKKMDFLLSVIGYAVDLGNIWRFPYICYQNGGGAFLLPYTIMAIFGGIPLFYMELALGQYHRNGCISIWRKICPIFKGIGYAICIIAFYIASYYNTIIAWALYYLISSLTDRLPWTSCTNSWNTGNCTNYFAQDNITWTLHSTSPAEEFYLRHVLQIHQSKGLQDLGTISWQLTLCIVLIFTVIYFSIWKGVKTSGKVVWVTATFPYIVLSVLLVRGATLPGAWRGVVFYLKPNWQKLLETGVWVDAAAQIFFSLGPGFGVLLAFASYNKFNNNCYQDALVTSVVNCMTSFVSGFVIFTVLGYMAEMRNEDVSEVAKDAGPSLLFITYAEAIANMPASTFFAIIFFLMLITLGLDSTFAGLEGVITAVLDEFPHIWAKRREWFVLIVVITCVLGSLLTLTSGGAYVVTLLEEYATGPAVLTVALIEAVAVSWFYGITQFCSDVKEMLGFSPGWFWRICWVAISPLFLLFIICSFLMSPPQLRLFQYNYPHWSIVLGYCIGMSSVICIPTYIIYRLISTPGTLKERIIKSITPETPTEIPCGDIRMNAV

Consider `O=c1oc2cc(O[C@@H]3C[C@H]4CC[C@@H](C3)N4)ccc2cc1-c1ccccc1` [1st Compound of Example 2, exo-7-[(1S,3S,5R)-(8-Aza-bicyclo[3.2.1]oct-3-yl)oxy]-3-phenyl-chromen-2-one hydrochloric acid salt], for which the IC50 turned out to be 6 nM in assay [1], 48 nM in assay [2] and 19 nM in assay [3].

In the case of `O=c1cc(-c2ccccc2)c2ccc(O[C@@H]3C[C@H]4CC[C@@H](C3)N4)cc2o1` [4th Compound of Example 2, exo-7-[(1S,3S,5R)-(8-Aza-bicyclo[3.2.1]oct-3-yl)oxy]-4-phenyl-chromen-2-one hydrochloric acid salt], the results for the IC50 in assay [1], in assay [2] and in assay [3] were 29 nM, above 1000 nM and above 1000 nM, respectively.

On to `O=c1oc2cc(O[C@@H]3C[C@H]4CC[C@@H](C3)N4)ccc2cc1-c1cccc(F)c1` [6th Compound of Example 2, exo-7-[(1S,3S,5R)-(8-Aza-bicyclo[3.2.1]oct-3-yl)oxy]-3-(3-fluoro-phenyl)-chromen-2-one hydrochloric acid salt], for which the IC50 is 5.8 nM in assay [1], 28 nM in assay [2] and 26 nM in assay [3].
